PubChem BioAssay (NCI)
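Protocol summary: plate cells (96-well), add compound at 5 concentrations, incubate 48 h, interpolate endpoints linearly. TGI marks complete inhibition of growth.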

How the values were obtained:
Test in all cases: NCI tumour cell line growth inhibition, 48 h
SN12C renal = system: SN12C renal
HCT-15 colon = system: HCT-15 colon
SF-268 CNS = system: SF-268 CNS
EKVX NSCLC = system: EKVX NSCLC
ACHN renal = system: ACHN renal
SK-MEL-5 melanoma = system: SK-MEL-5 melanoma
A549 NSCLC = system: A549 NSCLC
MDA-MB-231 breast = system: MDA-MB-231 breast
SK-OV-3 ovarian = system: SK-OV-3 ovarian
HCC-2998 colon = system: HCC-2998 colon

SMILES | TGI (SN12C renal) [µM] | TGI (HCT-15 colon) [µM] | TGI (SF-268 CNS) [µM] | TGI (EKVX NSCLC) [µM] | TGI (ACHN renal) [µM] | TGI (SK-MEL-5 melanoma) [µM] | TGI (A549 NSCLC) [µM] | TGI (MDA-MB-231 breast) [µM] | TGI (SK-OV-3 ovarian) [µM] | TGI (HCC-2998 colon) [µM]
COc1ccc(C2c3cc4c(cc3OC(N3CCCCC3)C2C)OCO4)cc1 (configuration not stated) | > 100 | > 100 | > 100 | > 100 | > 100 | > 100 | > 100 |  |  | 
CCOc1cc(C2SCC(=O)N2c2nc3cc4sc(N5C(=O)CSC5c5ccc(O)c(OCC)c5)nc4cc3s2)ccc1O (configuration not stated) | > 100 | > 100 | > 100 | > 100 | > 100 | > 100 | > 100 | > 100 | > 100 | > 100
c1ccc(C2=C(c3ccccc3)P(c3ccccc3)C2)cc1 (configuration not stated) | > 100 | > 100 | > 100 |  | > 100 |  | > 100 | > 100 | > 100 | > 100
O=[N+]([O-])c1ccc(Cl)cc1C=NC12CC3CC(CC(C3)C1)C2 | > 100 | > 100 | > 100 | > 100 | > 100 | > 100 | > 100 | > 100 | > 100 | > 100
COc1ccc2c(c1)CC[C@@H]1[C@@H]2CC[C@]2(C)C(=O)/C(=C/c3cc(OC)c(OC)c(OC)c3)C[C@@H]12 |  | > 100 |  | > 100 | 40.7 | > 100 | > 100 | 42 | > 100 | > 100
N#Cc1c(N2CCN(c3ccc([N+](=O)[O-])cc3)CC2)[n+](=O)c2ccc(Cl)cc2n1[O-] | 3.05 | 2.17 | 10.9 | 10.8 | 2.24 |  | > 24.4 |  | > 23.9 | 4.4
O=C1/C(=C/c2ccco2)NC(=S)N1CN1CCOCC1 | > 100 | > 100 | > 100 | > 100 | > 100 | > 100 | > 100 | > 100 | > 100 | 
CCS(=O)(=O)c1c2cc(OC)ccc2nc2ccc(OC)cc12 | > 100 | > 100 | > 100 | > 100 | > 100 |  | > 100 | > 100 | > 100 | > 100
COc1cc(/C=C/C(=O)OC[C@H](Br)[C@H](OC(C)=O)c2ccc3c(c2)OCO3)cc(OC)c1OC | > 100 | > 100 | > 100 | > 100 | > 100 | > 100 | > 100 | > 100 | > 100 | > 100
O=C(O)/C=C/C(=O)O | > 100 | > 100 | > 100 | > 100 | > 100 | > 100 | > 100 | > 100 |  | > 100
C/C=C\C(CC(=O)NCCC1CN(C(=O)c2ccccc2)c2ccccc21)CC(=O)OC (configuration not stated) |  | > 100 | > 100 | > 100 | > 100 | > 100 | > 100 | > 100 | > 100 | > 100
Cn1ccc(C(=O)NCCCCCNC(=O)c2ccn(C)c(=O)c2O)c(O)c1=O | > 100 | > 100 | > 100 |  | > 100 | > 100 | > 100 | > 100 |  | > 100
CCOC12SC(=Nc3ccc(C)cc3)NN1C(=S)N(C)N=C2C (configuration not stated) | > 100 | > 100 | > 100 | > 100 | > 100 | > 100 | > 100 |  |  | 
CC(C)(C)c1cc(C2COC(=O)COCC(=O)OCCOCCOCCO2)cc(C(C)(C)C)c1O (configuration not stated) | 20.8 | > 100 | 41.3 | > 100 | 37.2 | > 100 | > 31.6 | > 100 | 55.9 | 27.9
NC(=O)CS(=O)CC(N)C(=O)O (configuration not stated) | > 100 | > 100 | > 100 | > 100 | > 100 | > 100 | > 100 | > 100 |  | > 100
COc1ccc2c(c1)-c1nn(CCN(C)C)c3ccc(C(=O)NCCCN(C)CCCNC(=O)c4ccc5c6c(nn5CCN(C)C)-c5cc(OC)ccc5Nc46)c(c13)N2 | 0.983 | 10.9 | 2.46 | 1.68 | 7.28 | 0.313 | 1.17 | 0.689 | 3.18 | 0.306
O=C1C[C@H](c2ccccc2)C2(C(=O)c3ccccc3C2=O)[C@H](c2ccccc2)C1 | > 100 | > 100 |  |  |  | > 100 |  | 80.2 | > 100 | > 100
O=C(/C=C/c1ccccc1O)/C=C/c1ccccc1O | 3.65 | 5.1 | 0.905 |  | 3.35 | 2.8 | 6.38 | 5.29 | 4.34 | 
COc1cc(C(SCc2ccccc2)SCc2ccccc2)ccc1O | > 10 | > 10 | > 10 | > 10 | > 10 | > 10 |  | > 10 | > 10 | > 10
Cc1n(CC(=O)c2ccccc2)nc2sc(N)n[n+]12 | > 100 | > 100 | > 100 | > 100 | > 100 | > 100 | > 100 |  | 74.7 | > 100
CC[C@@H]1CC[C@@H]2[C@H](CC[C@]3(C)[C@@H](OS(=O)(=O)c4ccc(C)cc4)CC[C@@H]23)[C@H]1CO | > 100 | > 100 | > 100 | > 100 | > 100 | > 100 | > 100 | > 100 |  | > 100
OCC(O)C(O)C(O)C(/C=N\Nc1ncnc2ccc(Br)cc12)=N/Nc1ncnc2ccc(Br)cc12 (configuration not stated) | > 100 |  | > 100 | > 100 | > 100 | 18 | > 100 | > 100 | > 100 | 
CC1CCC2(CC1)N=C1CCC(C)CC1C1(CCC(C)CC1)N2 (configuration not stated) |  | > 100 |  |  | > 100 | > 100 | > 100 | > 100 | > 100 | > 100
